From ChEMBL document CHEMBL1124557, “Pentadienyl carboxamide derivatives as antagonists of platelet-activating factor” (J Med Chem, 1989)

What was measured:
[1] = tested on: Cavia porcellus; assay: Ability to prevent PAF-induced bronchoconstriction in guinea pig when administered at a dose of 1 mg/kg intravenously; assay type: functional; settings: route intravenous
[2] = tested on: Cavia porcellus; assay: PAF-induced capillary permeability changes are studied in guinea pig skin test, after peroral administration of the compound; assay type: functional; settings: po, read-out: ID50 (the source's name)
[3] = tested on: Rattus norvegicus; assay: PAF-induced capillary permeability changes are studied in rat skin test, after intravenous administration of the compound; assay type: functional; settings: read-out: ID50 (the source's name)
[4] = biological target: Platelet-activating factor receptor (Cavia porcellus) (UniProt P21556); assay: Ability to prevent PAF-induced bronchoconstriction in guinea pig 2 hr after administration (50 mg/kg perorally); assay type: functional, organism-based
[5] = tested on: Cavia porcellus; assay: Ability to prevent PAF-induced bronchoconstriction in guinea pig 6 hr following 50 mg/kg p.o. administration.; assay type: functional; settings: route oral
[6] = tested on: Cavia porcellus; assay: PAF-induced capillary permeability changes are studied in guinea pig test, after intravenous administration of the compound; assay type: functional; settings: read-out: ID50 (the source's name)
[7] = biological target: Platelet-activating factor receptor (Cavia porcellus) (UniProt P21556); assay: Ability to prevent PAF-induced bronchoconstriction in guinea pig when administered intravenously; assay type: functional
[8] = tested on: Rattus norvegicus; assay: PAF-induced capillary permeability changes are studied in rat skin test, after peroral administration of the compound; assay type: functional; settings: po, read-out: ID50 (the source's name)
[9] = tested on: Cavia porcellus; assay: Inhibitory activity against bronchoconstriction in guinea pig 2 hr after peroral administration of compound; assay type: functional; settings: Lung, po, read-out: ID50 (the source's name)
[10] = tested on: Cavia porcellus; assay: Inhibition of PAF-induced bronchoconstriction in guinea pig 2 hr after p.o. administration.; assay type: functional; settings: po, read-out: ID50 (the source's name)
[11] = tested on: Cavia porcellus; assay: Ability to prevent PAF-induced bronchoconstriction in guinea pig when administered dose 1 mg/kg intravenously; assay type: functional; settings: route intravenous
[12] = tested on: Cavia porcellus; assay: Ability to prevent PAF-induced bronchoconstriction in guinea pig 2 hr after administration of compound (50 mg/kg perorally); assay type: functional; settings: po, read-out: ID50 (the source's name)
[13] = tested on: Cavia porcellus; assay: Ability to prevent PAF-induced bronchoconstriction in guinea pig when administered dose 0.5 mg/kg intravenously; assay type: functional; settings: route intravenous

Sequence of Platelet-activating factor receptor (Cavia porcellus) (P21556 whole entry): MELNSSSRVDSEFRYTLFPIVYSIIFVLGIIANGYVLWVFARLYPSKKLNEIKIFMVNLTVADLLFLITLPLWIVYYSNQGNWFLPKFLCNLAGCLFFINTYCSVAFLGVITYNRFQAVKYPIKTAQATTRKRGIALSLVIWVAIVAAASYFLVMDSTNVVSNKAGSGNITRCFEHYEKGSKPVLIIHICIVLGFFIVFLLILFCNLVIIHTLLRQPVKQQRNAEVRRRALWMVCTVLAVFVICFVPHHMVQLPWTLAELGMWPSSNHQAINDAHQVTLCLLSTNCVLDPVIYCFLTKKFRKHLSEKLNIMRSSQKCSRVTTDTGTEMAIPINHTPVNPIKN

Compound | inhibition in vivo at 1 mg/kg [1] [%] | ED50 [2] [mg/kg] | ED50 [3] [mg/kg] | inhibition [4] [%] | inhibition in vivo at 50 mg/kg [5] [%] | ED50 [6] [mg/kg] | ID50 [7] [mg/kg] | ED50 [8] [mg/kg] | ED50 [9] [mg/kg] | ED50 [10] [mg/kg] | inhibition in vivo at 1 mg/kg [11] [%] | ED50 [12] [mg/kg] | inhibition in vivo at 0.5 mg/kg [13] [%]
CCCCC/C(=C\C=C\C(=O)N[C@H](C)CCCc1cccnc1)c1ccc(OC)cc1 | 99 | 65 | 1.7 | 100 | 71 | 3 | 0.05 | 70 | 16 |  |  |  | 
COc1ccc(C(=C/C=C/C(=O)N[C@H](C)CCCc2cccnc2)c2ccc(OC)cc2)cc1 | 98 | 75 | 2 | 98 | 93 | 15 | 0.25 | 25 | 4 |  |  |  | 
Cc1nnc2n1-c1sc(CCC(=O)N3CCOCC3)cc1C(c1ccccc1Cl)=NC2 [APAFANT] | 99 | 35 | 0.64 | 100 | 100 | 2.5 | 0.03 | 45 |  | 1 |  |  | 
CCCCCC/C(=C\C=C\C(=O)N[C@H](C)CCCc1cccnc1)c1ccc(OC)cc1 |  |  |  | 96 | 14 |  | 0.07 |  |  | 8 | 100 |  | 
O=C(C/C=C/C=C(c1ccccc1)c1ccccc1)NCCCCc1cccnc1 |  |  |  | 35 |  |  |  |  |  |  |  | 0.62 | 60
